Reference: US20240270821A1, “GIP/GLP1/GCG TRI-RECEPTOR AGONISTS AND USES THEREOF” (priority 2023, published 2024)
Like-named read-outs stand apart in the source and are kept apart here. Starred links: 1 amine or outer side, 2 acyl side, 3 side chain; linkers in the order of their positions; H or OH if unused. Non-standard residues stand in square brackets, D forms with d. Groups on a side chain read outwards from the residue. No end group written: not given here. *: point of attachment. C20 diacid = O=C(O)CCCCCCCCCCCCCCCCCCC(=O)*; C18 diacid = O=C(O)CCCCCCCCCCCCCCCCC(=O)*; γGlu = O=C(O)[C@H](CCC(=O)[*:2])N[*:1]; αMe4Pal = C[C@](N)(Cc1ccncc1)C(=O)O; 4Pal = N[C@@H](Cc1ccncc1)C(=O)O; αMeL = CC(C)C[C@](C)(N)C(=O)O; Orn = NCCC[C@H](N)C(=O)O; Dap = NC[C@H](N)C(=O)O; AEEA = NCCOCCOCC(=O)O; Aib = CC(C)(N)C(=O)O

Legend:
Assay type in all cases: cell-based
hGLP-1R [1] = biological target: T1, hGLP-1R (Homo sapiens, UniProt P43220); assay: Functional cAMP activity in the presence of 1% HSA
human GLP1-R = human GLP1-R (Homo sapiens, UniProt P43220); assay: GLP1-R internalization assay in HEK293 cells; details: for Internalization % TOP: normalized to maximum concentration of GLP-1 (100%)
hGcgR = hGcgR (Homo sapiens, UniProt P47871); assay: Functional cAMP activation in the presence of 0.1% casein (no HSA);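 note: intracellular cAMP rise after 30 min at 37 °C, read by HTRF against a cAMP standard curve, scaled from buffer only (0%) to maximal control ligand response (100%)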
hGIPR [2] = biological target: T2, hGIPR (Homo sapiens, UniProt P48546); assay: as above;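 note: intracellular cAMP rise after 30 min at 37 °C read by HTRF against a standard curve, scaled between buffer alone (0%) and top control ligand concentration (100%), four-parameter fit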
T2 sequence (P48546 22-466): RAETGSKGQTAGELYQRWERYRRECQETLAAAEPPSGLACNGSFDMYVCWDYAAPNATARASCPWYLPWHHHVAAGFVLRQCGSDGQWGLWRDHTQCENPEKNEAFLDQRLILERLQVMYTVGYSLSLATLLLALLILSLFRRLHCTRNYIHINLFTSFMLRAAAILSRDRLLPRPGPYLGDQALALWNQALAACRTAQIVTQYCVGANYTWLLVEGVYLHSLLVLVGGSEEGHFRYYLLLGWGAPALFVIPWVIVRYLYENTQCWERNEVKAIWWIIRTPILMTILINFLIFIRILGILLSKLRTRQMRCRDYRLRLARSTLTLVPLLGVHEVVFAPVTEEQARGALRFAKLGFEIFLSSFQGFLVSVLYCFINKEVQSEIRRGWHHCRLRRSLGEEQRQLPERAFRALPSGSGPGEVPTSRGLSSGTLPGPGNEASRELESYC

hGIPR [3] = biological target: T2, hGIPR; assay: Functional cAMP activity in the presence of 1% HSA
human GcgR = human GcgR (Homo sapiens, UniProt P47871); assay: Functional cAMP activity in the presence of 1% HSA
hGLP-1R [4] = biological target: T1, hGLP-1R; assay: Functional cAMP activation in the presence of 0.1% casein (no HSA);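 for Relative cAMP EC50, hGIPR: intracellular cAMP rise after 30 min at 37 °C read by HTRF against a standard curve, scaled between buffer alone (0%) and top control ligand concentration (100%), four-parameter fit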;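 for Relative cAMP EC50, hGLP-1R: intracellular cAMP rise after 30 min at 37 °C read by HTRF, normalized between buffer only (0%) and maximal control ligand (100%), four-parameter variable-slope fit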
[5] = read-out: cAMP Rel EC50, hGLP-1R
[6] = HEK293 cells expressing SNAP-GLP-1R, read-out: GLP1R Internalization EC50
[7] = in the presence of 0.1% casein (no HSA), geometric mean, read-out: Relative cAMP EC50, hGcgR
[8] = in the presence of 0.1% casein (no HSA), geometric mean, read-out: Relative cAMP EC50, hGIPR
[9] = in the presence of 0.1% casein (no HSA), geometric mean, read-out: Relative cAMP EC50, hGLP-1R

hGcgR, sequence (P47871 26-477): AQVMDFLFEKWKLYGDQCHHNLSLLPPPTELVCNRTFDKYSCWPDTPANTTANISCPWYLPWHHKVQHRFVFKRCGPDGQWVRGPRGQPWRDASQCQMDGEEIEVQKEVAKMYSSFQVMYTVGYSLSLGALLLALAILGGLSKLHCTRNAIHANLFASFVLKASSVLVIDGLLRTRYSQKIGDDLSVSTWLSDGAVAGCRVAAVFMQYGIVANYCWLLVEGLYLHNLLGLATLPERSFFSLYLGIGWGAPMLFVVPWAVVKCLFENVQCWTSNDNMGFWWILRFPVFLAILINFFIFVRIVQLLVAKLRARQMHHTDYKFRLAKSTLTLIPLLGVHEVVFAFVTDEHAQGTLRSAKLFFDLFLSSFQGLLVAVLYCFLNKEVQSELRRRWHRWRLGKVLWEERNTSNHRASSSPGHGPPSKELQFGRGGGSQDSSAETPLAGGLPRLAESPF
human GcgR, sequence (P47871 26-477): as above
human GLP1-R, sequence (P43220 24-463): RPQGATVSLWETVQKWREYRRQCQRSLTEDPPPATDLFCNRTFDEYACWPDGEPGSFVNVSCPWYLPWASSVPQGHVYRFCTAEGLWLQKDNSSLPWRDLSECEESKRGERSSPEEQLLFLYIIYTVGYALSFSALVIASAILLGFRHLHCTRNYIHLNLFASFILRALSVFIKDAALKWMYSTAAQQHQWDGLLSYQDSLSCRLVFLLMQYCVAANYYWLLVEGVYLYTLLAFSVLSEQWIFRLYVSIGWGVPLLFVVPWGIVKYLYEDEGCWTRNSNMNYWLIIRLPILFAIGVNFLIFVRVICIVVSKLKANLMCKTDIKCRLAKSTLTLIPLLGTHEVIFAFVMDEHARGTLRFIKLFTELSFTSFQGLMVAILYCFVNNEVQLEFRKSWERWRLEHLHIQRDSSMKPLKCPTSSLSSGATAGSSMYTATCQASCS
T1 sequence (P43220 24-463): as above

| Substance | EC50 (hGLP-1R [1]; [5]) [nM] | EC50 (human GLP1-R; [6]) [nM] | Internalization % TOP (human GLP1-R) [%] | EC50 (hGcgR; [7]) [nM] | EC50 (hGIPR [2]; [8]) [nM] | EC50 (hGIPR [3]; read-out: cAMP Rel EC50, hGIPR) [nM] | EC50 (human GcgR; read-out: cAMP Rel EC50, hGcgR) [nM] | EC50 (hGLP-1R [4]; [9]) [nM] | EC50 (hGLP-1R [1]) [nM] | EC50 (human GLP1-R) [nM] | EC50 (hGcgR) [nM] | EC50 (hGIPR [2]) [nM] | EC50 (hGIPR [3]) [nM] | EC50 (human GcgR) [nM] | EC50 (hGLP-1R [4]) [nM] |
| --- | --- | --- | --- | --- | --- | --- | --- | --- | --- | --- | --- | --- | --- | --- | --- |
| H-Y[Aib]QGTFTSDFS[Orn][αMeL]LDKK([AEEA-γGlu-γGlu-C18 diacid])AQ[Aib]AFIEYLLE[Aib]GPSSGAPPPSG[4Pal]-NH2 [Example 279] | 367 | 115 | 37.5 | 5.06 | 0.105 | 11.6 | 427 | 5.77 |  |  |  |  |  |  |  |
| H-Y[Aib]QGTFTSDFSK[αMeL]LDKK([AEEA-γGlu-C18 diacid])AQ[Aib]AFIEYLLE[Aib]GPSSGEPPPSEG-NH2 [Example 46] | 601 | 41 | 58.1 | 1.53 | 0.0947 | 19.6 | 393 | 4.04 |  |  |  |  |  |  |  |
| H-Y[Aib]QGTFTSDFS[Orn][αMeL]LDKK([AEEA-AEEA-γGlu-C18 diacid])AQ[Aib]AFIEYLLEGGPSSGAPPPSGE-NH2 [Example 107] | 1110 | 150 | 45.1 | 10.8 | 0.426 | 61.3 | 1690 | 8.5 |  |  |  |  |  |  |  |
| H-Y[Aib]QGTFTSDFSK[αMeL]LDKK([AEEA-γGlu-C20 diacid])AQ[Aib]AFIEYLLAGGPSSGEPPPSSG-NH2 [Example 7] | 494 | 52.6 | 76.3 | 5.05 | 0.203 | 50.6 | 1210 | 2.11 |  |  |  |  |  |  |  |
| H-Y[Aib]QGTFTSDFS[Orn][αMeL]LDKK([AEEA-AEEA-γGlu-C18 diacid])AQ[Aib]AFIEYLLE[Aib]GESSGAPPPSGS-NH2 [Example 179] | 904 | 63.4 | 48.4 | 4.82 | 0.104 | 21.3 | 1440 | 5.81 |  |  |  |  |  |  |  |
| H-Y[Aib]QGTFTSDFS[Orn][αMeL]LDKK([AEEA-γGlu-C18 diacid])AQ[αMe4Pal]AFIEYLIE[Aib]GESSGAPPPSGE-NH2 [Example 228] | 311 | 39 | 35 | 1.38 | 0.147 | 37.8 | 322 | 1.52 |  |  |  |  |  |  |  |
| H-Y[Aib]QGTFTSDFS[Orn][αMeL]LDKK([AEEA-γGlu-C18 diacid])AQ[Aib]AFIEYLLEGG[4Pal]SSGAPPPGGS-NH2 [Example 163] | 762 | 143 | 37.8 | 5.6 | 0.376 | 52 | 790 | 6.5 |  |  |  |  |  |  |  |
| H-Y[Aib]QGTFTSDFSK[αMeL]LDKK([AEEA-γGlu-C20 diacid])AQ[Aib]AFIEYLLAGGPSSGEPPPSGS-NH2 [Example 8] | 603 | 63.2 | 74 | 6.65 | 0.231 | 39.4 | 1560 | 2.11 |  |  |  |  |  |  |  |
| H-Y[Aib]QGTFTSDFSK[αMeL]LDKK([AEEA-γGlu-C20 diacid])AQQAFIEYLLA[Aib]GPSSGEPPPSEG-NH2 [Example 19] |  |  | 72.6 |  |  |  |  |  | 1310 | 52.4 | 2.35 | 0.228 | 66.2 | 1010 | 3.96 |
| Y[Aib]QGTFTSDFS[Orn][αMeL]LDKK([AEEA-AEEA-γGlu-C18 diacid])AQ[Aib]AFIEYLLE[dA]GPSSG[4Pal]PPPSGS-NH2 [Example 254] | 265 | 31.9 | 47.8 | 4.9 | 0.121 | 21.4 | 767 | 3.08 |  |  |  |  |  |  |  |
| H-Y[Aib]QGTFTSDFS[Orn][αMeL]LDKK([AEEA-γGlu-C18 diacid])AQ[Aib]AFIEWLLEGGSSSGAPPPSGS-NH2 [Example 173] | 293 | 97.1 | 38.6 | 3.6 | 0.168 | 49.9 | 745 | 2.32 |  |  |  |  |  |  |  |
| H-Y[Aib]QGTFTSDFS[Orn][αMeL]LDKK([AEEA-γGlu-C18 diacid])AQ[Aib]AFIEWLLEGGSSSGAPPPSGE-NH2 [Example 172] | 457 | 121 | 41.4 | 3.38 | 0.174 | 29.3 | 605 | 3.5 |  |  |  |  |  |  |  |
| H-Y[Aib]QGTFTSDFS[Orn][αMeL]LDKK([AEEA-γGlu-γGlu-C18 diacid])AQ[Aib]AFIEYLLE[Aib]GPSSGAPPPSGS-NH2 [Example 192] | 719 | 115 | 48.7 | 4.18 | 0.142 | 9.86 | 560 | 9.77 |  |  |  |  |  |  |  |
| H-Y[Aib]QGTFTSDYS[Dap][αMeL]LDKK([AEEA-γGlu-C18 diacid])AQ[Aib]AFIEYLLEGGESSGAPPPSGS-NH2 [Example 360] | 989 | 214 | 66.1 | 5.28 | 0.45 | 78.3 | 1470 | 5.86 |  |  |  |  |  |  |  |
| H-Y[Aib]QGTFTSDFSK[αMeL]LDKK([AEEA-γGlu-C18 diacid])AQ[Aib]AFIEYLIEGGPSSGAPPPSEG-NH2 [Example 49] | 151 | 37.2 | 53.2 | 5.54 | 0.324 | 44.9 | 1310 | 0.706 |  |  |  |  |  |  |  |
